Test results published in paper PMC12704579, “New Anticancer 4‐Aryldihydropyrimidinone‐5‐Carboxylates Targeting Hsp90” (Chemical Biology & Drug Design, 2025).
In brackets after ≈: the same amount, converted by molar mass. Several values for one entry are separate records, joined by “and”; a condition that tells them apart may be missing. Equal entries are not always repeated. Where two headings read alike, the source gives them in different places.

Tests used:
[1] = biological target: T1, Recombinant human Hsp90 alpha protein (Homo sapiens, UniProt P07900); assay: Transcreener ADP FP Hsp90 ATPase assay; type: biochemical; conditions: Recombinant human HSP90, 100 μM ATP; read-out: ATPase assay on rh-Hsp90 IC50
T1 construct: human full‐length protein, expressed in Escherichia coli; His tag (C); purchased Abcam ab80369; host or cells: Escherichia coli
Experimental: Transcreener ADP (cat. no. 3004‐1K) and ADP2 (cat. no. 3010‐1K) FP assay kits were obtained from Bellbrook Laboratories. Recombinant human Hsp90 alpha protein (active), human full‐length protein, expressed in Escherichia coli with > 90% purity and C‐terminus His tag, was purchased from Abcam (ab80369). All FP assays were carried out in black, 384‐well, low‐volume, polystyrene nonbinding microplates from Corning Life Sciences. All basic buffer components were obtained from Sigma‐Aldrich Chemical Co. 17‐AAG (Figure 1) was obtained from Abcam. Using the Transcreener ADP FP kit, the conditions for the recombinant human Hsp90 ATPase reaction were 50 mM HEPES (pH 7.4), 20 mM KCl, 2 mM EGTA, 4 mM MgCl2, and 0.01% Brij‐35 in a 10‐μL total assay volume. The final assay concentration of ATP was 100 μM for Hsp90. Due to the relatively low level of ATPase activity compared with other enzymes, the plate was incubated at 37°C and run over 1, 2 and 3 h time points. The reaction was stopped, and the ADP was detected by adding 10 μL of 50 mM HEPES (pH 7.4), 400 mM NaCl, 20 mM EDTA, 0.01% Brij35, 75 μg/mL anti‐ADP monoclonal antibody, and 4 nM ADP far red tracer. The plate was sealed, centrifuged at 600 g for 1 min, and left at room temperature for 1 h. FP readings for the Hsp90 ATPase Transcreener assays were performed on a Clariostar plate reader ([…]). A blank mP signal composed of protein, antibody, labelled ADP, but no ATP substrate gave similar mP values to those seen in the no‐protein controls. The upper limit of the assay window was defined by a no‐protein control, and the mP in the presence of heat shock protein was subtracted from this control to generate a change in polarisation (ΔmP), which was plotted on the activity graphs. Therefore, the data take into account the spontaneous hydrolysis of ATP. Each value is the mean of triplicate determinations with standard deviations (SD) shown. IC50 values were calculated using GraphPad Prism software with the nonlinear regression curve fitted to the log (inhibitor concentration) against the raw mP values on the linear portion of the standard curve.

HEK-293 cells = assay: CellTiter-Blue cell viability assay, HEK-293 (24 h); type: cell-based, human; conditions: for GI50: Homo sapiens, HEK293, 24 h incubation time
Experimental: (§1) Human Embryonic Kidney cells (HEK‐293) and human breast cancer cells (MCF‐7, MDA‐MB‐231 and HCC1954) were cultured in complete growth media: […] 1X (Gibco); 10% v/v Fetal Bovine Serum (FBS, Sigma Dorset UK) and L‐glutamine (2 mM, Invitrogen). SW‐480‐WT cells were maintained in selective media made up of Dulbecco's Modified Eagle Medium (Gibco), enriched with […] of Geneticin Selective Antibiotic (G418 Sulfate; Gibco, Thermo Fisher). Cells were incubated at a 5% CO2 atmosphere at 37°C.
(§2) Cells were cultured in 96‐well plates in 90 μL at a seeding density of 1 × 10^6 cells per well. Compound samples were prepared at different concentrations (1 mM, 100 μM, 10 μM, 1 μM, 100 nM, 10 nM) and 10 μL of each concentration was seeded in each well. Two different negative controls were used: DMSO 0.01% and 0.001%. Paclitaxel (30% w/v) was used as a positive control. Cells were treated for 24 h after which 20 μL of CellTitre‐Blue reagent (Promega, Southampton, UK) was added and incubated for 2 h at 37°C in 5% CO2. Fluorescence was measured at 560/590 nm on a Fluorostar Optima plate reader (BMG Labtech, Bucks, UK). Assay end points were normalised to 0% (DMSO only) and fitted to a semilog plot using at least n = 3 technical replicates (n = 6 for DMSO control and paclitaxel control) and N = 3 independent replicates. The curve fit was performed using the GraphPad Prism software and the standard Hill equation.
(§3) In view of previous reports on Hsp90 inhibitors and their effects on cancer cell viability (Eachkoti et al. [2014]) and clonogenicity (Kinzel et al. [2016]), new compounds were tested for inhibition of cell viability within both non‐tumourigenic (HEK‐293) and breast cancer cell lines (MDA‐MB‐231) at a fixed concentration of 10 μM. The well‐established CellTiter‐Blue endpoint assay was used to assess cell viability. New compounds were also assessed in a colony forming assay (MCF‐7 breast cancer cell line), used as an efficacy screening to provide an indication of the inhibition of clonogenicity for these small molecules (Table 1).

[2] = as above; type: cell-based, human; conditions: human, HEK-293 cells, CellTiter-Blue, 24 h incubation, 10 μM test compound, standardised to DMSO control
Experimental: as §1, §2, §3

MCF-7 cells = assay: Colony forming assay, MCF-7; type: cell-based, human; conditions: for IC50: Homo sapiens, MCF7, 168 h, 7 days; for % Clonogenicity (MCF-7, 10 μM): percentage of survival colonies, 7-day incubation, standardised to DMSO control
Experimental: as §1
Cells were seeded in a 12‐well plate at 400 cells per well. One hour after the seeding of the cells, compounds (1 mM, 100 μM, 10 μM, 1 μM, 100 nM, 10 nM) or vehicle were added into the wells in triplicate (DMSO vehicle 0.1% and 1%). After 7 days, colonies were stained with 350 μL of crystal violet solution, incubated for 30 min at room temperature, then wells were washed in water and dried. At least the best 3 independent experiments out of 5 independent repeats were used to perform the statistical analysis of the results. Colonies were counted by GelCount Colony Counter (Oxford Optronix Ltd.) using the GelCount 1.1.8.0 software. Assay end points were normalised to 0% (DMSO only) and fitted to a semi‐log plot using at least n = 3 technical replicates (n = 6 for DMSO control and N = 3 independent replicates). The curve fit was performed using GraphPad Prism.
as §3

[3] = Turbidometric solubility (Cyprotex); type: physicochemical; conditions: kinetic from dmso stock
Experimental: All the selected analogues were calculated to be compliant with the Lipinski rule‐of‐five guidelines for oral bioavailability. Furthermore, in vitro ADME (absorption, distribution, metabolism, excretion) properties were assessed as an outsourced service (Cyprotex Discovery Ltd., UK; part of the EvoTec Group); profiling membrane permeability (Caco‐2 cell model), hERG channel cardiotoxicity, human microsomal stability and turbidometric solubility (Table 4).

[4] = read-out: Solubility - estimated precipitation range, Calc. mid-range
[5] = read-out: Solubility - estimated precipitation range, Lower-bound
[6] = read-out: Solubility - estimated precipitation range, Upper-bound

SMILES | IC50 [1] | GI50 (HEK-293 cells) | viability at 24 h, 10 µM [2] | IC50 (MCF-7 cells) | % Clonogenicity (MCF-7, 10 μM) (MCF-7 cells) | solubility [3, 4] | solubility [3, 5] | solubility [3, 6] | % Viability (HEK-293, 10 μM) (HEK-293 cells; CellTiter-Blue, 24 h incubation, 10 μM test compound, standardised to DMSO control, 10 µM)
COc1ccc(C2NC(=O)NC(C)=C2C(=O)OCc2ccc3c(c2)OCO3)c(F)c1 (centres unmarked) [Compound 5d, Benzo[d][1,3]dioxol‐5‐ylmethyl‐4‐(2‐Fluoro‐4‐Methoxyphenyl)‐6‐Methyl‐2‐Oxo‐1,2,3,4‐Tetrahydropyrimidine‐5‐Carboxylate] | 3.25 µM | 92.4 µM | 99.9 ± 4.53% | 0.29 µM | 49.75% and 49.75 ± 4.35% | 3.75 µM (≈ 1.55 µg/mL) | 1 µM (≈ 0.414 µg/mL) | 6.5 µM (≈ 2.69 µg/mL) | 
COc1ccc(COC(=O)C2=C(C)NC(=O)NC2c2ccc(Cl)cc2)cc1C (centres unmarked) [Compound 5e, 4‐Methoxy‐3‐Methylbenzyl‐4‐(4‐Chlorophenyl)‐6‐Methyl‐2‐Oxo‐1,2,3,4‐Tetrahydropyrimidine‐5‐Carboxylate] | 6.4 µM | 86.3 µM | 82% | 0.91 µM | 59.96 ± 1.95% | 65 µM (≈ 26.1 µg/mL) | 30 µM (≈ 12 µg/mL) | 100 µM (≈ 40.1 µg/mL) | 82.07 ± 1.28%
